Laboratory results as given in BindingDB's records for doi:10.1080/14756360400015231 (Quaid-I-Azam University, 2005).

biological target: Carboxylic ester hydrolase (Equus caballus, UniProt Q9N1N9); assay: Enzyme Inhibition Assay; details: pH 8; 25 °C
Description: In vitro cholinesterase inhibition assay using electric-eel acetylcholinesterase, horse-serum butyrylcholinesterse. The IC50 values were calculated using the […] enzyme kinetics program (Perrella Scientific Inc., Amherst, USA).

Sequence of Carboxylic ester hydrolase (Q9N1N9 whole entry): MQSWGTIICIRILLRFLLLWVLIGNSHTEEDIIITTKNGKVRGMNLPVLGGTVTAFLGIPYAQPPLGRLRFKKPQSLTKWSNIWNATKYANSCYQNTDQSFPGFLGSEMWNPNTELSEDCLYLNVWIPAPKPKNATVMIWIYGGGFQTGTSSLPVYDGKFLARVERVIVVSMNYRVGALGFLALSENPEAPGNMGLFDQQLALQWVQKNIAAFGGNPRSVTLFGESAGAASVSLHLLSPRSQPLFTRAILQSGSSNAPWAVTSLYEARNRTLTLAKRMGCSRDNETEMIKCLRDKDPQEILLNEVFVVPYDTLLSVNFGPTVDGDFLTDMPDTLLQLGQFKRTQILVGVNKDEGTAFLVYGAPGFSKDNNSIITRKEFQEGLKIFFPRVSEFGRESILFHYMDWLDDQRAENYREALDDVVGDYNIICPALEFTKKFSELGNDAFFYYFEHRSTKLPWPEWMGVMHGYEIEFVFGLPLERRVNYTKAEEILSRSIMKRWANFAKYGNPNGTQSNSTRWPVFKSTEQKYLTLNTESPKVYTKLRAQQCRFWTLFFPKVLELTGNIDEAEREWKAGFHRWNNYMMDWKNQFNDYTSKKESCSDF

`O=C(/C=C/c1ccc(O)cc1)c1ccccc1` [Chalcone 2] and `COc1ccc(/C=C/C(=O)c2ccccc2)cc1` [Chalcone, 4] are within 1.5-fold of each other in IC50: 40 µM for the first, 39 µM for the second.

Going from `O=C(/C=C/c1ccccc1O)c1ccccc1` [Chalcone, 1] to `O=C(/C=C/c1ccccc1)c1ccccc1` [Chalcone, 13], the IC50 rises from 16 µM to 109 µM (6.8-fold).

Going from `O=C(/C=C/c1cccc(O)c1)c1ccccc1` [Chalcone, 2] to `COc1ccc(/C=C/C(=O)c2ccccc2)cc1OC` [Chalcone, 5], the IC50 falls from 46.2 µM to 23.1 µM (2-fold). The second is the more potent here.
